Measured values as given in US20130109682A1, “CYCLIC ETHER COMPOUNDS USEFUL AS KINASE INHIBITORS” (NOVARTIS AG, priority 2010, published 2013).
Where two headings read alike, the source gives them in different places.

Experiments:
Type in all cases: biochemical
PKCα = PKCα (Homo sapiens, UniProt P17252); assay: PKCα kinase Caliper assay; conditions: read-out: PKC IC50
In short: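 Eight-point compound dilutions incubated with PKCα and peptide/ATP for 60 min at 30° C in 50 mM HEPES pH 7.5, 1 mM DTT, 0.02% Tween20, 0.02% BSA, 0.6% DMSO. Activity from phospho-peptide formed, separated by microfluidic mobility shift.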

PDGFRaV561D kinase = PDGFRaV561D kinase (Homo sapiens, UniProt P16234, V561D); assay: PDGFRaV561D kinase inhibition assay (LanthaScreen TR-FRET); conditions: read-out: PDGFRa IC50
In short: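 TR-FRET end-point assay with 4.4 nM PDGFRa V561D kinase, 50 nM polyEAY, 10 mM Mn and 2 μM ATP (f.c.) in Tris pH 7.4 buffer. After 1 h, EDTA stop and Tb-labeled P-20 antibody added; read after 45 min in the dark.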

FLT3D835Y kinase = target: T1, FLT3D835Y kinase (Homo sapiens, UniProt P36888, D835Y); assay: FLT3D835Y kinase inhibition assay (LanthaScreen TR-FRET); conditions: read-out: FLT3 IC50
T1 sequence (P36888 27-993 D835Y): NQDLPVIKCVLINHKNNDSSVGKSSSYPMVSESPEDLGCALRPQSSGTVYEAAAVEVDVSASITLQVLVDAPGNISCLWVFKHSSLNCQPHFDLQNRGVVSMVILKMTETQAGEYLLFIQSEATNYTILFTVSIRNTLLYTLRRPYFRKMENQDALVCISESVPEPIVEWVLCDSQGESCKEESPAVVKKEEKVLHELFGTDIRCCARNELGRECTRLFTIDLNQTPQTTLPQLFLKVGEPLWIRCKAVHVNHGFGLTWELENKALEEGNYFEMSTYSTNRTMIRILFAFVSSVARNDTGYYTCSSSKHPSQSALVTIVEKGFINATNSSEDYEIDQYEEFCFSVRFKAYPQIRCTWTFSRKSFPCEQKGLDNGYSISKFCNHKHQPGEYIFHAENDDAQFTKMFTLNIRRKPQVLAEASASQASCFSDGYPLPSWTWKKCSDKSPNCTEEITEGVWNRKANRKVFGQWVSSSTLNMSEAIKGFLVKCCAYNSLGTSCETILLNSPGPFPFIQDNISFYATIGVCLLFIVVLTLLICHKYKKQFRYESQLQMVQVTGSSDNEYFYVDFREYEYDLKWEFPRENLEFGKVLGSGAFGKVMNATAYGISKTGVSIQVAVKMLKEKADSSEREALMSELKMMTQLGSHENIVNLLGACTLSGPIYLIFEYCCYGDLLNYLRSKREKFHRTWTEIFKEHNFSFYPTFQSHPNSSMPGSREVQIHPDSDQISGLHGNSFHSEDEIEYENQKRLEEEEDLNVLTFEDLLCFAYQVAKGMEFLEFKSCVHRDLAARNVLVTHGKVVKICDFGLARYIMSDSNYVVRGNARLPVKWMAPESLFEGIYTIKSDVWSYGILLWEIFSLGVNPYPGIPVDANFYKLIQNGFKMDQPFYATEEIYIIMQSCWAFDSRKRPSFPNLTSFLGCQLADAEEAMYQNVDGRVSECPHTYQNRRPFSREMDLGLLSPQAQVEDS
In short: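 TR-FRET with 5.7 nM FLT3D835Y, 50 nM polyEAY substrate, 2 μM ATP (f.c.), 3 mM Mg and 3 mM Mn in 50 mM TRIS-HCl pH 7.4 with DTT, Tween 20 and Na3VO4. Reaction 1 h, stopped with EDTA, then Tb-labeled P-20 antibody for 45 min; single end-point reading.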

Chain of PDGFRaV561D kinase (P16234 24-1089 V561D): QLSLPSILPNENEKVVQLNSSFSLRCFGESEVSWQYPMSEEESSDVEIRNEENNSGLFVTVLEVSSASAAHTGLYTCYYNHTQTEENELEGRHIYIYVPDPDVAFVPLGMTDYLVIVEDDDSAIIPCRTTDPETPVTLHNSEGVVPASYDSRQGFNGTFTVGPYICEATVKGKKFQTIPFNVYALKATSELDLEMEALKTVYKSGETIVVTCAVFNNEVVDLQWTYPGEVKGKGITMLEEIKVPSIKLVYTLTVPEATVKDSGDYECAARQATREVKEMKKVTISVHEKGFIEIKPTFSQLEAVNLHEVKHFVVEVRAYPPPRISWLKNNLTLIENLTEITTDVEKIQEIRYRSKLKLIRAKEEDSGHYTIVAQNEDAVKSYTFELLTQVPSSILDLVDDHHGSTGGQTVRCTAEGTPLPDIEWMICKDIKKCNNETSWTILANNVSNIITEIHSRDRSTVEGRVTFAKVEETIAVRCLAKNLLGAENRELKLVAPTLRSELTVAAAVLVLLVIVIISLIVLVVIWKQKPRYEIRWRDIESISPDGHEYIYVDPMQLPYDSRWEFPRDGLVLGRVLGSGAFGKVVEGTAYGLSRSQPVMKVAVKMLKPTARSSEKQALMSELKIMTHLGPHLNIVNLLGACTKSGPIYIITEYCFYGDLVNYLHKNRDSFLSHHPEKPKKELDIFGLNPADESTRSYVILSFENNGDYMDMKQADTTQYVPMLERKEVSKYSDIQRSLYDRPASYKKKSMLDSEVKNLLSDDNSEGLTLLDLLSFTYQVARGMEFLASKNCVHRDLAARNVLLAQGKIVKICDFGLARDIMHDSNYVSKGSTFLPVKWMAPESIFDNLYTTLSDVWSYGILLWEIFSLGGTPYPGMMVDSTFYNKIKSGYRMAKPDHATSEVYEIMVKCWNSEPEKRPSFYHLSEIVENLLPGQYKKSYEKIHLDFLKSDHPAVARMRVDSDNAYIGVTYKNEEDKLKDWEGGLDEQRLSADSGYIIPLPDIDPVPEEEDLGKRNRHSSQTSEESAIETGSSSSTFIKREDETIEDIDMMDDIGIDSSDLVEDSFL

Compound	IC50 (PKCα; PKCα Caliper assay)	IC50 (PDGFRaV561D kinase)	IC50 (FLT3D835Y kinase)	IC50 (PKCα)
CC[C@@H]1O[C@H](c2ccncc2NC(=O)c2nc(-c3ccccc3)cnc2N)C[C@H](N)[C@@]1(C)O [Example 345, 3-amino-N-(4-((2S,4S,5R,6S)-4-amino-6-ethyl-5-hydroxy-5-methyltetrahydro-2H-pyran-2-yl)pyridin-3-yl)-6-phenylpyrazine-2-carboxamide]	660 nM	7400 nM	920 nM	
Nc1ncc(-c2ccccc2)nc1C(=O)Nc1cnccc1[C@H]1C[C@@H](O)[C@@]2(O)CCCC[C@H]2O1 [Example 173, 3-amino-N-(4-((2R,4R,4aS,8aR)-4,4a-dihydroxyoctahydro-2H-chromen-2-yl)pyridin-3-yl)-6-phenylpyrazine-2-carboxamide]		48 nM	7.4 nM	310 nM
C[C@@]1(O)[C@@H](N)C[C@@H](c2ccncc2NC(=O)c2nc(-c3ccccc3)cnc2N)O[C@H]1C1CC1 [Example 347, 3-amino-N-(4-((2S,4S,5R,6S)-4-amino-6-cyclopropyl-5-hydroxy-5-methyltetrahydro-2H-pyran-2-yl)pyridin-3-yl)-6-phenylpyrazine-2-carboxamide]	1000 nM	9000 nM	770 nM	
CC[C@H]1O[C@@H](c2ccncc2NC(=O)c2nc(-c3ccccc3)cnc2N)C[C@@H](N)[C@]1(C)O [Example 348, 3-amino-N-(4-((2R,4R,5S,6R)-4-amino-6-ethyl-5-hydroxy-5-methyltetrahydro-2H-pyran-2-yl)pyridin-3-yl)-6-phenylpyrazine-2-carboxamide]	220 nM	150 nM	17 nM	
CC(C)[C@@H]1O[C@H](c2ccncc2NC(=O)c2nc(-c3ccccc3)cnc2N)C[C@H](N)[C@H]1O [Example 240, 3-amino-N-(4-((2S,4S,5R,6S)-4-amino-5-hydroxy-6-isopropyltetrahydro-2H-pyran-2-yl)pyridin-3-yl)-6-phenylpyrazine-2-carboxamide]	290 nM	7300 nM	1200 nM	
CC(C)(C)[C@H]1O[C@@H](c2ccncc2NC(=O)c2nc(-c3ccccc3)cnc2N)C[C@@H](N)[C@@H]1O [Example 354, 3-amino-N-(4-((2R,4R,5S,6R)-4-amino-6-tert-butyl-5-hydroxytetrahydro-2H-pyran-2-yl)pyridin-3-yl)-6-phenylpyrazine-2-carboxamide]	22 nM	26 nM	3.1 nM	
O=C(Nc1cnccc1[C@H]1C[C@@H](O)[C@@]2(O)CCCC[C@H]2O1)c1c[nH]cc(-c2ccccc2)c1=O [Example 178, N-(4-((2R,4R,4aS,8aR)-4,4a-dihydroxyoctahydro-2H-chromen-2-yl)pyridin-3-yl)-4-oxo-5-phenyl-1,4-dihydropyridine-3-carboxamide]		> 10000 nM	> 10000 nM	> 10000 nM
Nc1ncc(-c2ccccc2)nc1C(=O)Nc1cnccc1[C@H]1C[C@@H](O)[C@@]2(O)CCC[C@H]2O1 [Example 195, 3-amino-N-(4-((2R,4R,4aS,7aR)-4,4a-dihydroxyoctahydrocyclopenta[b]pyran-2-yl)pyridin-3-yl)-6-phenylpyrazine-2-carboxamide]		33 nM	3.5 nM	230 nM
CC(C)[C@@H]1C[C@H](N)C[C@H](c2ccncc2NC(=O)c2nc(-c3ccccc3)cnc2N)O1 [Example 291, 3-amino-N-(4-((2R,4S,6S)-4-amino-6-isopropyltetrahydro-2H-pyran-2-yl)pyridin-3-yl)-6-phenylpyrazine-2-carboxamide]	43 nM	81 nM	5.3 nM	
CC[C@]1(O)[C@H](C)O[C@H](c2ccncc2NC(=O)c2nc(-c3ccccc3)cnc2N)C[C@@H]1N [Example 189, 3-amino-N-(4-((2S,4S,5R,6S)-4-amino-5-ethyl-5-hydroxy-6-methyltetrahydro-2H-pyran-2-yl)pyridin-3-yl)-6-phenylpyrazine-2-carboxamide]	710 nM	1700 nM	170 nM	
CC(C)(C)[C@@H]1O[C@H](c2ccncc2NC(=O)c2nc(-c3ccccc3)cnc2N)C[C@H](N)[C@H]1O [Example 355, 3-amino-N-(4-((2S,4S,5R,6S)-4-amino-6-tert-butyl-5-hydroxytetrahydro-2H-pyran-2-yl)pyridin-3-yl)-6-phenylpyrazine-2-carboxamide]	840 nM	9100 nM	2600 nM	
CC1(C)C[C@@H](N)C[C@H](c2ccncc2NC(=O)c2nc(-c3ccccc3)cnc2N)O1 [Example 296, 3-amino-N-(4-((2R,4S)-4-amino-6,6-dimethyltetrahydro-2H-pyran-2-yl)pyridin-3-yl)-6-phenylpyrazine-2-carboxamide]	40 nM	8.7 nM	0.8 nM	
N[C@@H]1C[C@H](c2ccncc2NC(=O)c2ccc(F)c(-c3c(F)cccc3F)n2)O[C@@H]2CCC[C@]12O [Example 210, N-(4-((2R,4R,4aS,7aR)-4-amino-4a-hydroxyoctahydrocyclopenta[b]pyran-2-yl)pyridin-3-yl)-6-(2,6-difluorophenyl)-5-fluoropicolinamide]		400 nM	4200 nM	> 10000 nM
CC(C)[C@H]1O[C@@H](c2ccncc2NC(=O)c2nc(-c3ccccc3)cnc2N)C[C@@H](N)[C@@H]1O [Example 356, 3-amino-N-(4-((2R,4R,5S,6R)-4-amino-5-hydroxy-6-isopropyltetrahydro-2H-pyran-2-yl)pyridin-3-yl)-6-phenylpyrazine-2-carboxamide]	75 nM	53 nM	5.8 nM	
Nc1ncc(-c2ccccc2)nc1C(=O)Nc1cnccc1[C@@H]1C[C@H](N)[C@@H]2CCC[C@@H]2O1 [Example 233, 3-amino-N-(4-((2S,4S,4aS,7aS)-4-aminooctahydrocyclopenta[b]pyran-2-yl)pyridin-3-yl)-6-phenylpyrazine-2-carboxamide]	550 nM	940 nM	160 nM	
CC[C@]1(O)[C@H](N)C[C@H](c2ccncc2NC(=O)c2nc(-c3ccccc3)cnc2N)O[C@@H]1C [Example 187, 3-amino-N-(4-((2R,4R,5S,6R)-4-amino-5-ethyl-5-hydroxy-6-methyltetrahydro-2H-pyran-2-yl)pyridin-3-yl)-6-phenylpyrazine-2-carboxamide]	50 nM	25 nM	1.7 nM	
